# Reference: patent US5714363A, “Deacetoxycephalosporin C hydroxylase” (priority 1992, dated 1998)
# Structures can show the parent of a compound that is named as a salt. Where two headings read alike, the source gives them in different places.
# T1: DAOC hydroxylase (Streptomyces clavuligerus, UniProt P42220)
# T1 sequence (P42220 1-318): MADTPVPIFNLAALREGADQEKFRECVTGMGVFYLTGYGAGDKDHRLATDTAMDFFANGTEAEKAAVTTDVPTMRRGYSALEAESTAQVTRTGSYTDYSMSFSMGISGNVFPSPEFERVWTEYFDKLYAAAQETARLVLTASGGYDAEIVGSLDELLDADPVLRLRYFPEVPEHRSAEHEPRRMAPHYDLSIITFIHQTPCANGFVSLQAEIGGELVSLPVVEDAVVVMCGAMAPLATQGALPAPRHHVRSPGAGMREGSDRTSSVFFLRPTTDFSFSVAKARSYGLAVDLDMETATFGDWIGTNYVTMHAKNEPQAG
# Tests used:
# [1] = biological target: T1, DAOC hydroxylase; assay: DAOC hydroxylase activity assay (DAC formation from DAOC, HPLC at 260 nm); assay type: biochemical; design: The highly purified native enzyme (92% purity) has a molecular weight of 35,000 dalton; endogenous in cells; host or cells: Streptomyces clavuligerus cells (native producer; NRRL 18491 is named as preferred strain), enzyme purified from cell-free extract; details: for stimulation of catalytic activity: with Fe2+, α-ketoglutarate and O2; for Relative Activity (%): no additive = 100; for replacement of ferrous ion for enzymatic activity: ion in place of Fe2+; for drop of maximum catalytic activity when not present: external ferrous ion, DTT and ascorbate both absent; for reduction in enzyme activity: substitution of MOPS buffer at optimal pH
# Experimental: (§1) The activity of the DAOC hydroxylase is determined throughout the process by the following assay method. The hydroxylase activity was determined by monitoring DAC formation from DAOC at 260 nm with HPLC as described by Dotzlaf, J. E., and Yeh, W.-K. (1987) J. Bacteriol., 169, 1611-1618. […] The enzymatic reaction is initiated by adding the DAOC and the reaction is conducted for 20 minutes at 29° C. DAC formation is linear with reaction time for up to 40 minutes. One unit of enzyme activity is defined as the amount of hydroxylase required to cause formation of one μmol of DAC per minute from DAOC under the above-described assay conditions.
# The specific activity of the hydroxylase is defined as units per milligram of protein.
# [2] = biological target: T1, DAOC hydroxylase; assay: Substrate specificity of purified DAOC hydroxylase; assay type: biochemical; design: The highly purified native enzyme (92% purity) has a molecular weight of 35,000 dalton; endogenous in cells; host or cells: Streptomyces clavuligerus cells (native producer; NRRL 18491 is named as preferred strain), enzyme purified from cell-free extract; details: for Sp. Activity (mU/mg) / Relative Activity (%): compound as substrate; for Relative Activity (%): relative to DAOC = 100; for Vmax (Percent Catalytic Activities, relative Vmax): relative to DAOC to DAC = 100, substrate of the reaction; for effectiveness as substrate: conditions for optimal catalysis
# Experimental: Several compounds were evaluated as substrates for the purified enzyme to determine its substrate specificity. The compounds evaluated and the results are shown below in TABLE 4. The results were obtained by EPLC analysis.
# as §1
# [3] = biological target: T1, DAOC hydroxylase; assay: Stoichiometry of DAOC to DAC conversion; assay type: biochemical; design: The highly purified native enzyme (92% purity) has a molecular weight of 35,000 dalton; endogenous in cells; host or cells: Streptomyces clavuligerus cells (native producer; NRRL 18491 is named as preferred strain), enzyme purified from cell-free extract
# Experimental: The stoichiometry of the hydroxylase conversion of DAOC to DAC was determined. The molar ratio for DAC-formation/DAOC-disappearance during a 3 h reaction remained in the range of 0.91-1.00 as shown by the plot in FIG. 2. The conversion of DAOC to DAC was only partially complete (58%) under the reaction conditions.
# [4] = Experimental: The DAOC hydroxylase is recognized as unstable and, accordingly, was difficult to isolate and obtain in a high state of purity from cell-free extracts.
# The process of this invention comprises the use of a hydroxylase stabilizing buffer which is used both in the preparation of crude cell-free extracts of the enzyme and during the isolation and purification thereof. The stabilizing buffer, referred to herein as buffer A, comprises 15 mM MOPS buffer, pH 7.3, containing 1 mM uric acid, 1 mM mannitol and 0.1M KCl.
# [5] = biological target: T1, DAOC hydroxylase; assay: Kinetic parameters of DAOC hydroxylase (Lineweaver-Burk)
# Experimental: as §1, with “DAC formation is linear with reaction time for up to 40 minutes.” left out
# [6] = substrate: O=C(O)CCC(=O)C(=O)O; assay: purified protein, by the assay type; details: other: saturated concentration of the other substrate (300 μM DAOC or α-KG); pH 7.3; 29.0 °C
# [7] = substrate: CC1=C(C(=O)O)N2C(=O)[C@@H](NC(=O)CCC[C@@H](N)C(=O)O)[C@H]2SC1; assay: purified protein, by the assay type; details: other: saturated concentration of the other substrate (300 μM DAOC or α-KG); pH 7.3; 29.0 °C
molecule,measurement,setting,value
OCCS [β-Mercaptoethanol],stimulation of catalytic activity,[1],little stimulating effect
O=C(O)CI [Iodoacetic acid],Relative Activity (%),[1]; additive 1 mM,59%
"CC1=C(C(=O)O)N2C(=O)[C@@H](NC(=O)CCC[C@@H](N)C(=O)O)[C@H]2SC1 [DAOC, deacetoxycephalosporin C]",Sp. Activity (mU/mg),[2],159.2 mU/mg
same,Relative Activity (%),[2],100%
same,"Vmax (Percent Catalytic Activities, relative Vmax)",[2],100%
same,conversion of DAOC to DAC,[3]; 3 h reaction,58%
same,molar ratio DAC-formation/DAOC-disappearance,[3]; during a 3 h reaction,0.91-1.00
"CC1=C(C(=O)O)N2C(=O)[C@@H](NC(=O)CCC[C@H](N)C(=O)O)[C@H]2SC1 [Iso-DAOC, 7β-(Lα-aminoadipamido)-3-methyl-3-cephem-4-carboxylic acid]",Sp. Activity (mU/mg),[2],1.3 mU/mg
same,Relative Activity (%),[2],0.8%
same,effectiveness as substrate,[2],did not serve as effective substrates
[Zn+2] [Zn^2+],replacement of ferrous ion for enzymatic activity,[1],not replaceable
[Na+] [sodium],replacement of ferrous ion for enzymatic activity,[1],not replaceable
[Fe+3] [ferric ion],replacement of ferrous ion for enzymatic activity,[1],can replace ferrous ion with retention of maximum activity
"O[C@H](CS)[C@H](O)CS (racemic) [DTT, dithiothreitol]",drop of maximum catalytic activity when not present,[1],~80%
same,stimulation of catalytic activity,[1],stimulated
[Cu+2] [Cu^2+],replacement of ferrous ion for enzymatic activity,[1],not replaceable
CCO [ethyl alcohol],effect on the stability of the hydroxylase,[4],no effect
N[C@@H](CCC(=O)N[C@@H](CS)C(=O)NCC(=O)O)C(=O)O [Reduced glutathione],stimulation of catalytic activity,[1],as effective
"CC1(C)S[C@@H]2[C@H](NC(=O)CCC[C@@H](N)C(=O)O)C(=O)N2[C@H]1C(=O)O [Penicillin N, penicillin N]",effectiveness as substrate,[2],weak catalytic activity
same,"Vmax (Percent Catalytic Activities, relative Vmax)",[2],1.4%
O=S(=O)(F)Cc1ccccc1 [phenylmethylsulfonyl fluoride],effect on the stability of the hydroxylase,[4]; added during preparation of the extracts,no effect
Nc1ncnc2c1ncn2[C@@H]1O[C@H](COP(=O)(O)OP(=O)(O)OP(=O)(O)O)[C@@H](O)[C@H]1O [ATP],stimulation of catalytic activity,[1],not
[Co+2] [Co^2+],replacement of ferrous ion for enzymatic activity,[1],not replaceable
[K+] [potassium],replacement of ferrous ion for enzymatic activity,[1],not replaceable
[Fe+2] [ferrous ion],enzymatic activity without external Fe2+,[1]; no external Fe2+,2 % of maximum
same,Ka of the hydroxylase,[5]; activator ferrous ion,20 µM
NC(CO)(CO)CO [Tris-HCl buffer],reduction in enzyme activity,[1],27%
"O=C(O)c1cc(SSc2ccc([N+](=O)[O-])c(C(=O)O)c2)ccc1[N+](=O)[O-] [DTNB, 5,5'-dithiobis2-nitrobenzoic acid]",Relative Activity (%),[1]; additive 1 mM,0%
[Ni+2] [Ni^2+],replacement of ferrous ion for enzymatic activity,[1],not replaceable
O=S(=O)(O)CCN1CCN(CCO)CC1 [HEPES buffer],reduction in enzyme activity,[1],7%
"C=C1CS[C@@H]2[C@H](NC(=O)CCC[C@@H](N)C(=O)O)C(=O)N2C1C(=O)O (stereo partly drawn) [EMCC, 7β-(D-α-aminoadipamido)-3-exomethylenecepham-4-carboxylic acid]",Sp. Activity (mU/mg),[2],58.1 mU/mg
same,Relative Activity (%),[2],36.5%
same,effectiveness as substrate,[2],fairly efficient
same,"Vmax (Percent Catalytic Activities, relative Vmax)",[2],37%
[Mg+2] [Mg^2+],replacement of ferrous ion for enzymatic activity,[1],not replaceable
[Ca+2] [Ca^2+],replacement of ferrous ion for enzymatic activity,[1],not replaceable
c1cnc2c(c1)ccc1cccnc12 [o-Phenanthroline],Relative Activity (%),[1]; additive 0.05 mM,81%
same,Relative Activity (%),[1]; additive 0.5 mM,0%
O=C1O[C@H]([C@@H](O)CO)C(O)=C1O [ascorbate],drop of maximum catalytic activity when not present,[1],~80%
[Mn+2] [Mn^2+],replacement of ferrous ion for enzymatic activity,[1],not replaceable
"O=C(O)CN(CCN(CC(=O)O)CC(=O)O)CC(=O)O [EDTA, ethylenediamine tetraacetic acid]",Relative Activity (%),[1]; additive 0.05 mM,16%
same,Relative Activity (%),[1]; additive 0.5 mM,0%
"CCN1C(=O)C=CC1=O [NEM, Nethylmaleimide]",Relative Activity (%),[1]; additive 1 mM,24%
"CC1=C(C(=O)O)N2C(=O)[C@@H](NC(=O)CCC[C@@H](N)C(=O)O)[C@H]2CC1 [Carba-DAOC, 1carba(1-dethia)deacetoxycephalosporin C]",Sp. Activity (mU/mg),[2],3.0 mU/mg
same,Relative Activity (%),[2],1.9%
same,effectiveness as substrate,[2],did not serve as effective substrates
DAOC hydroxylase (Streptomyces clavuligerus) (protein) MADTPVPIFNLAALREGADQEKFRECVTGMGVFYLTGYGAGDKDHRLATDTAMDFFANGTEAEKAAVTTDVPTMRRGYSALEAESTAQVTRTGSYTDYSMSFSMGISGNVFPSPEFERVWTEYFDKLYAAAQETARLVLTASGGYDAEIVGSLDELLDADPVLRLRYFPEVPEHRSAEHEPRRMAPHYDLSIITFIHQTPCANGFVSLQAEIGGELVSLPVVEDAVVVMCGAMAPLATQGALPAPRHHVRSPGAGMREGSDRTSSVFFLRPTTDFSFSVAKARSYGLAVDLDMETATFGDWIGTNYVTMHAKNEPQAG,Km,[6],10 µM
same,Km,[7],50 µM
"DAOC hydroxylase: enzyme from Streptomyces clavuligerus converting DAOC to DAC; monomeric, about 35,000 dalton (protein, UniProt P42220 2-318, looked up) Deacetoxycephalosporin C …: ADTPVPIFNLAALREGADQEKFRECVTGMGVFYLTGYGAGDKDHRLATDTAMDFFANGTEAEKAAVTTDVPTMRRGYSALEAESTAQVTRTGSYTDYSMSFSMGISGNVFPSPEFERVWTEYFDKLYAAAQETARLVLTASGGYDAEIVGSLDELLDADPVLRLRYFPEVPEHRSAEHEPRRMAPHYDLSIITFIHQTPCANGFVSLQAEIGGELVSLPVVEDAVVVMCGAMAPLATQGALPAPRHHVRSPGAGMREGSDRTSSVFFLRPTTDFSFSVAKARSYGLAVDLDMETATFGDWIGTNYVTMHAKNEPQAG",half-life,"[4]; crude extract in stabilizing buffer A (15 mM MOPS pH 7.3, 1 mM uric acid, 1 mM mannitol, 0.1M KCl)",72 h
same,half-life,"[4]; crude extract, 4° C., 15 mM Tris-HCl buffer, pH 7.5",12 h
same,improvement of half-life over Tris-HCl buffer,[4]; stabilizing buffer A,6 fold
same,Vmax of the hydroxylase,"[5]; DAOC to DAC, optimal reaction conditions",0.45 μM of DAC formed per minute per milligram of protein
